Experimental data: article PMC6277767, “Broad and Region-Specific Impacts of the Synthetic Cannabinoid CP 55,940 in Adolescent and Adult Female Mouse Brains” (Frontiers in Molecular Neuroscience, 2018)

System: CD1 female mouse brain lipidome
Assay: Brain-region lipid levels (HPLC/MS/MS lipidomics) 2 h after single i.p. 3 mg/kg CP 55,940 vs vehicle
Format: in vivo
Parameters: N-arachidonoyl phenylalanine level, Mean / N-stearoyl tryptophan level, Mean / N-stearoyl proline level, Mean / N-stearoyl leucine level, Mean / N-stearoyl phenylalanine level, Mean / N-stearoyl serine level, Mean / N-stearoyl methionine level, Mean: unit: moles per gram
Conditions: thalamus, 3 mg/kg CP 55,940
Description: The Bloomington Institutional Animal Care and Use Committee of Indiana University reviewed and approved the animal procedures. Female mice from the CD1 strain were utilized to match our study examining THC’s effects on the brain lipidome ([Leishman et al., 2018]). Mice were given a single i.p. injection of either 3 mg/kg CP or 1:1:18 cremophor:ethanol:saline vehicle (please refer to the section “3 mg/kg CP Is Relevant for Synthetic Cannabinoid Abuse and Has Stronger Effects on the Female Mouse Brain Lipidome During Adolescence” for a justification of dose and use of female mice). Three different age groups were given injections: PND 35 and PND 50 adolescents, and adult mice (PND 113). At least eight mice in each age group received CP and at least eight received vehicle. Matching the THC study time course ([Leishman et al., 2018]), mice were sacrificed via rapid decapitation 2 h after injection. Brains were immediately removed and flash-frozen in liquid nitrogen, and then stored at -80°C until dissections were performed. Brains were dissected on an ice-cold dissection plate into the following regions: STR, HIPP, CER, THAL, CTX, HYP, MID, and STEM. These abbreviations for these brain areas will be used exclusively when discussing the results generated by these specific dissections. Each dissected area was immediately placed in liquid nitrogen and then stored at -80°C until used for lipid extraction.
Tissue extracts were performed as previously described ([Bradshaw et al., 2006]; [Stuart et al., 2013]; [Raboune et al., 2014]; [Leishman et al., 2016a],[b], [2017], [2018]). First, samples were shock frozen in liquid nitrogen, weighed, and transferred to a centrifuge tube. The mass of the largest sample was multiplied by 50 to determine how many milliliters of HPLC-grade methanol (Fisher, Fair Lawn, NJ, United States) to add. Then, samples were spiked with 500 pmol deuterium-labeled NAGly (d8NAGly; Cayman Chemical, Ann Arbor, MI, United States). Samples were placed on ice in darkness for 2 h then individually homogenized and centrifuged at 19,000 × g for 20 min at 20°C. Supernatants were diluted with HPLC water (purified in house) to make a solution of 75% water, 25% supernatant. Lipids were partially purified on C18 solid phase extraction columns (Agilent, Palo Alto, CA, United States). A series of four elutions with 1.5 mL of 60%, 75%, 85%, and 100% methanol were collected ([Stuart et al., 2013]; [Leishman et al., 2016a],[b], [2018]).
As previously described ([Bradshaw et al., 2006]; [Tan et al., 2006]; [Smoum et al., 2010]; [Stuart et al., 2013]; [Tortoriello et al., 2013]; [Raboune et al., 2014]; [Leishman et al., 2016a],[b], [2017], [2018]), samples were analyzed using an Applied Biosystems API 3000 triple quadrupole mass spectrometer with electrospray ionization (Foster City, CA, United States). Using an Agilent XDB-C18 reversed phase analytical column and optimized mobile phase gradients, 20 μL from each elution were chromatographed. Two Shimadzu 10ADvp pumps (Columbia, MD, United States) provided the pressure for gradient elution. Mobile phase A: 20% methanol, 80% water (v/v) and 1 mM ammonium acetate (Sigma, St. Louis, MO, United States). Mobile phase B: 100% methanol, 1 mM ammonium acetate. Every method run began with 0% mobile phase B, reached 100% mobile phase B flowing at 0.2 mL/min, and gradually returned to 0% mobile phase B.
This screening library will be referred to as the lipidome when discussing data from this study. HPLC/MS/MS data were analyzed using Analyst software (Applied Biosystems) ([Bradshaw et al., 2006]; [Tan et al., 2006]; [Stuart et al., 2013]; [Tortoriello et al., 2013]; [Raboune et al., 2014]; [Leishman et al., 2016a],[b], [2017], [2018]). Chromatograms (Supplementary Figure 3) were generated by determining the retention time of analytes from the analytical column with a [M-1] or [M+1] parent peak and a fragmentation peak corresponding to the programmed values. […]

CCCCCCC(C)(C)c1ccc([C@@H]2C[C@H](O)CC[C@H]2CCCO)c(O)c1 [CP 55,940]
N-oleoyl glycine Direction (relative to Veh) (PND 35): ↓
N-oleoyl glycine Magnitude (x Veh level) (PND 35): 0.91 x Veh level
N-oleoyl leucine Direction (relative to Veh) (PND 35): ↑
N-oleoyl leucine Magnitude (x Veh level) (PND 35): 1.27 x Veh level
N-oleoyl valine Direction (relative to Veh) (PND 35): ↑
N-oleoyl valine Magnitude (x Veh level) (PND 35): 1.44 x Veh level
N-palmitoyl GABA Direction (relative to Veh) (PND 35): ↑
N-palmitoyl GABA Magnitude (x Veh level) (PND 35): 1.21 x Veh level
N-palmitoyl leucine, Direction (relative to Veh) (PND 35): ↑
N-palmitoyl leucine, Magnitude (x Veh level) (PND 35): 1.42 x Veh level
N-palmitoyl phenylalanine Direction (relative to Veh) (PND 35): ↑
N-palmitoyl phenylalanine Magnitude (x Veh level) (PND 35): 1.35 x Veh level
N-palmitoyl tyrosine Magnitude (x Veh level) (PND 35): 1.34 x Veh level
N-palmitoyl tyrosine, Direction (relative to Veh) (PND 35): ↑
N-palmitoyl valine Direction (relative to Veh) (PND 35): ↑
N-palmitoyl valine Magnitude (x Veh level) (PND 35): 1.79 x Veh level
N-stearoyl serine Direction (relative to Veh) (PND 35): ↓
N-stearoyl serine Magnitude (x Veh level) (PND 35): 0.83 x Veh level
N-stearoyl tyrosine Direction (relative to Veh) (PND 35): ↓
N-stearoyl tyrosine Magnitude (x Veh level) (PND 35): 0.81 x Veh level
N-stearoyl valine Direction (relative to Veh) (PND 35): ↑
N-stearoyl valine Magnitude (x Veh level) (PND 35): 1.26 x Veh level
PGE2 Direction (relative to Veh) (PND 35): ↑
PGE2 Magnitude (x Veh level) (PND 35): 1.16 x Veh level
phosphoLEA Direction (relative to Veh) (PND 35): ↑
phosphoLEA Magnitude (x Veh level) (PND 35): 1.24 x Veh level
2-arachidonoyl glycerol level, Mean (PND 35 adolescent female mice): 3.59E-10
2-linoleoyl glycerol level, Mean (PND 35 adolescent female mice): 1.52E-10
2-oleoyl glycerol level, Mean (PND 35 adolescent female mice): 1.68E-09
2-palmitoyl glycerol level, Mean (PND 35 adolescent female mice): 5.34E-10
6-ketoPGF1α level, Mean (PND 35 adolescent female mice): 1.42E-11
Arachidonic acid level, Mean (PND 35 adolescent female mice): 2.14E-09
Linoleic acid level, Mean (PND 35 adolescent female mice): 5.7E-10
N- stearoyl valine level, Mean (PND 35 adolescent female mice): 1.07E-12
N-arachidonoyl GABA level, Mean (PND 35 adolescent female mice): 2.62E-11
N-arachidonoyl alanine level, Mean (PND 35 adolescent female mice): 1.02E-11
N-arachidonoyl dopamine level, Mean (PND 35 adolescent female mice): BDL
N-arachidonoyl ethanolamine level, Mean (PND 35 adolescent female mice): 2.8E-11
N-arachidonoyl glycine level, Mean (PND 35 adolescent female mice): 4.62E-11
N-arachidonoyl phenylalanine level, Mean (PND 35 adolescent female mice): 1.31E-12
N-arachidonoyl serine level, Mean (PND 35 adolescent female mice): 6.28E-12
N-arachidonoyl taurine level, Mean (PND 35 adolescent female mice): 5.99E-11
N-arachidonoyl tryptophan level, Mean (PND 35 adolescent female mice): BDL
N-arachidonoyl tyrosine level, Mean (PND 35 adolescent female mice): 7.9E-13
N-docosahexaenoyl GABA level, Mean (PND 35 adolescent female mice): 2.9E-12
N-docosahexaenoyl alanine level, Mean (PND 35 adolescent female mice): 4.07E-12
N-docosahexaenoyl ethanolamine level, Mean (PND 35 adolescent female mice): 4.03E-11
N-docosahexaenoyl glycine level, Mean (PND 35 adolescent female mice): 1.76E-11
N-docosahexaenoyl leucine level, Mean (PND 35 adolescent female mice): 8.15E-13
N-docosahexaenoyl phenylalanine level, Mean (PND 35 adolescent female mice): 1.14E-12
N-docosahexaenoyl proline level, Mean (PND 35 adolescent female mice): BDL
N-docosahexaenoyl serine level, Mean (PND 35 adolescent female mice): 2.59E-11
N-docosahexaenoyl tyrosine level, Mean (PND 35 adolescent female mice): 7.13E-13
N-docosahexaenoyl valine level, Mean (PND 35 adolescent female mice): 2E-13
N-linoleoyl GABA level, Mean (PND 35 adolescent female mice): 9.8E-13
N-linoleoyl alanine level, Mean (PND 35 adolescent female mice): 1.66E-12
N-linoleoyl ethanolamine level, Mean (PND 35 adolescent female mice): 5.07E-11
N-linoleoyl glycine level, Mean (PND 35 adolescent female mice): 4.36E-12
N-linoleoyl leucine level, Mean (PND 35 adolescent female mice): 3.45E-13
N-linoleoyl methionine level, Mean (PND 35 adolescent female mice): BDL
N-linoleoyl proline level, Mean (PND 35 adolescent female mice): BDL
N-linoleoyl serine level, Mean (PND 35 adolescent female mice): 5.67E-11
N-linoleoyl tryptophan level, Mean (PND 35 adolescent female mice): BDL
N-linoleoyl tyrosine level, Mean (PND 35 adolescent female mice): BDL
N-nervonoyl valine level, Mean (PND 35 adolescent female mice): BDL
N-oleoyl GABA level, Mean (PND 35 adolescent female mice): 5.58E-12
N-oleoyl alanine level, Mean (PND 35 adolescent female mice): 7.79E-12
N-oleoyl dopamine level, Mean (PND 35 adolescent female mice): BDL
N-oleoyl ethanolamine level, Mean (PND 35 adolescent female mice): 1.71E-10
N-oleoyl glycine level, Mean (PND 35 adolescent female mice): 2.36E-11
N-oleoyl leucine level, Mean (PND 35 adolescent female mice): 2.09E-12
N-oleoyl methionine level, Mean (PND 35 adolescent female mice): 1.17E-12
N-oleoyl phenylalanine level, Mean (PND 35 adolescent female mice): 1.2E-12
N-oleoyl serine level, Mean (PND 35 adolescent female mice): 3.24E-10
N-oleoyl tryptophan level, Mean (PND 35 adolescent female mice): 1.87E-13
N-oleoyl tyrosine level, Mean (PND 35 adolescent female mice): 4.87E-13
N-oleoyl valine level, Mean (PND 35 adolescent female mice): 9.01E-13
N-palmitoyl GABA level, Mean (PND 35 adolescent female mice): 1.41E-11
N-palmitoyl alanine level, Mean (PND 35 adolescent female mice): 1.21E-11
N-palmitoyl ethanolamine level, Mean (PND 35 adolescent female mice): 8.69E-11
N-palmitoyl glycine level, Mean (PND 35 adolescent female mice): 4.99E-11
N-palmitoyl leucine level, Mean (PND 35 adolescent female mice): 4.1E-12
N-palmitoyl methionine level, Mean (PND 35 adolescent female mice): 1.84E-12
N-palmitoyl phenylalanine level, Mean (PND 35 adolescent female mice): 2.75E-12
N-palmitoyl proline level, Mean (PND 35 adolescent female mice): 1.05E-12
N-palmitoyl serine level, Mean (PND 35 adolescent female mice): 1.05E-10
N-palmitoyl tryptophan level, Mean (PND 35 adolescent female mice): 4.31E-13
N-palmitoyl tyrosine level, Mean (PND 35 adolescent female mice): 1.31E-12
N-palmitoyl valine level, Mean (PND 35 adolescent female mice): 2.65E-12
N-stearoyl GABA level, Mean (PND 35 adolescent female mice): 1.05E-11
N-stearoyl alanine level, Mean (PND 35 adolescent female mice): 1.24E-11
N-stearoyl ethanolamine level, Mean (PND 35 adolescent female mice): 1.97E-11
N-stearoyl glycine level, Mean (PND 35 adolescent female mice): 2.74E-11
N-stearoyl leucine level, Mean (PND 35 adolescent female mice): 1.66E-12
N-stearoyl methionine level, Mean (PND 35 adolescent female mice): 1.9E-12
N-stearoyl phenylalanine level, Mean (PND 35 adolescent female mice): 2.22E-12
N-stearoyl proline level, Mean (PND 35 adolescent female mice): 5.08E-13
N-stearoyl serine level, Mean (PND 35 adolescent female mice): 3.19E-11
N-stearoyl tryptophan level, Mean (PND 35 adolescent female mice): 1.26E-12
N-stearoyl tyrosine level, Mean (PND 35 adolescent female mice): 1.15E-13
Oleic acid level, Mean (PND 35 adolescent female mice): 1.67E-09
PGE2 level, Mean (PND 35 adolescent female mice): 6.31E-10
PhosphoLEA level, Mean (PND 35 adolescent female mice): 2.93E-11
